# Data from ChEMBL document CHEMBL1128616, “A pair of new apotirucallane triterpenes, meliavolkensins A and B, from Melia volkensii (Meliaceae)” (1995).
# Legend:
# Type in all cases: functional
# Artemia = assay: Compound was tested for its cytotoxic activity by brine shrimp lethality test
# MCF9 = assay: Compound was tested for its cytotoxic activity in MTT assay against MCF-9 cell line (human breast carcinoma); conditions: read-out: ED50 (the source's name)
# HT-29 = assay: Compound was tested for its cytotoxic activity in MTT assay against HT-29 cell line (human colon adenocarcinoma); conditions: read-out: ED50 (the source's name)
# A549 = assay: Compound was tested for its cytotoxic activity in MTT assay against A-549 cell line (human lung carcinoma); conditions: read-out: ED50 (the source's name)
Compound,LC50 (Artemia),EC50 (MCF9),EC50 (HT-29),EC50 (A549)
CO[C@]1(C(C)(C)O)CC[C@@H]([C@@H]2CC=C3[C@@]4(C)C(CC[C@]32C)[C@]2(C)C(C[C@H]4OC(C)=O)C(C)(C)C(OC(=O)c3ccccc3)C[C@@H]2OC(C)=O)CO1 (stereo partly specified),107 µg/mL,3.06 µg/mL,0.49 µg/mL,13.3 µg/mL
CO[C@@]1(C(C)(C)O)CC[C@@H]([C@@H]2CC=C3[C@@]4(C)C(CC[C@]32C)[C@]2(C)C(C[C@H]4OC(C)=O)C(C)(C)C(OC(=O)c3ccccc3)C[C@@H]2OC(C)=O)CO1 (stereo partly specified),89.3 µg/mL,2.02 µg/mL,0.25 µg/mL,10.6 µg/mL
COc1cccc2c1C(=O)c1c(O)c3c(c(O)c1C2=O)C[C@@](O)(C(=O)CO)C[C@@H]3O[C@H]1C[C@H](N)[C@H](O)[C@H](C)O1 [DOXORUBICIN],–,0.0673 µg/mL,0.0261 µg/mL,0.00844 µg/mL
